We go through 22 substances from patent publication US8178506B2, “Oligomeric compounds and compositions for use in modulation of small non-coding RNAs” (Regulus Therapeutics Inc., priority 2003, dated 2012).

In the oligonucleotide strings, read from the 5' end, every base follows the letter of its sugar. An asterisk marks phosphorothioate; unmarked linkages are phosphodiester. Other units and linkages are bracketed, terminal groups are in braces. A string of capitals states the bases alone. e = 2'-O-(2-methoxyethyl) (MOE); [5mC] = 5-methylcytosine; d = 2'-deoxy (DNA)

In one data set the test system is PEPCK-c. The data set is described as follows: PEPCK-c mRNA expression in HepG2 cells. The class given is cell-based, human. The settings on record: for PEPCKc mRNA: four hours, UTC = 100; for PEPCKc mRNA expression: Experiment 2, insulin treated: HepG2 cells transfected with oligomeric compound, 1 nM insulin for four hours, UTC + 1 nM insulin = 100.
The next data set deals with IL-12 mRNA. The experiment in a line: IL-12 mRNA in LPS-activated primary murine macrophages. The class given is cell-based, mouse. The settings on record: for IL-12 mRNA expression, −IFN % UTC: 300 nM oligomeric compound and LPS, no IFN-gamma pretreatment, single experiment; for IL-12 mRNA expression, −IFN % UTC / IL-12 mRNA expression, +IFN % UTC: normalized to LPS-treated cells without oligomeric compound; for IL-12 mRNA expression, +IFN % UTC: 300 nM oligomeric compound, stimulation with IFN-gamma and LPS, average of 2 experiments; for IL-12 mRNA expression, % UTC: LPS, average of 3 treatments.

The mark [1] stands for this setting: Experiment 1, basal (no insulin), HepG2, 100 nM oligomeric compound.
The mark [2] stands for this setting: Experiment 2, 1 nM insulin treated, HepG2, 100 nM oligomeric compound.
Setting [3] is: HepG2 cells, Experiment 1, basal (no insulin).
Setting [4] is: Experiment 3, basal (no insulin), HepG2 cells, 48 hours post-transfection.
Where [5] appears, read: Experiment 4, insulin-sensitization: HepG2 cells treated with 1 nM insulin for four hours, 48 h post-transfection, mRNA by real-time PCR.

As for “327913 (antisense eA*eA*e[5mC]*e[5mC]*eG*eA*eT*eT*eT*e[5mC]*eA*eA*eA*eT*eG*eG*eT*eG*e[5mC]*eT*eA*eG) [compound 327913]”, the figures for the “PEPCK-c (% UTC)” value in the data set with PEPCK-c (setting [1]) and in the data set on PEPCK-c (setting [2]) were 229 % UTC and 268 % UTC, respectively. The “IL-12 mRNA expression, −IFN % UTC” value in the data set with IL-12 mRNA was 276 % UTC. The “IL-12 mRNA expression, +IFN % UTC” value with IL-12 mRNA came out at 73 % UTC.

Consider “327893 (antisense eA*eA*e[5mC]*e[5mC]*eA*e[5mC]*eA*e[5mC]*eA*eA*e[5mC]*e[5mC]*eT*eA*e[5mC]*eT*eA*e[5mC]*e[5mC]*eT*e[5mC]*eA) [compound 327893]”, for which the “PEPCKc mRNA” value in the data set on PEPCK-c (setting [3]) was 81. Besides, in the data set on IL-12 mRNA, the “IL-12 mRNA expression, −IFN % UTC” value is recorded as 117 % UTC and the “IL-12 mRNA expression, +IFN % UTC” value stood at 52 % UTC.

Consider “327887 (antisense eG*e[5mC]*eG*eA*e[5mC]*e[5mC]*eA*eT*eG*eG*e[5mC]*eT*eG*eT*eA*eG*eA*e[5mC]*eT*eG*eT*eT*eA) [compound 327887]”, for which the “PEPCKc mRNA” value in the data set with PEPCK-c (setting [3]) was determined as 83. Moreover, in the data set on IL-12 mRNA, the “IL-12 mRNA expression, −IFN % UTC” value is 287 % UTC and the “IL-12 mRNA expression, +IFN % UTC” value was determined as 33 % UTC.

In the case of “327925 (antisense eT*eA*eG*e[5mC]*eT*eG*eG*eT*eT*eG*eA*eA*eG*eG*eG*eG*eA*e[5mC]*e[5mC]*eA*eA) [compound 327925]”, the “PEPCK-c (% UTC)” value in the data set on PEPCK-c (setting [1]) was 145 % UTC. Moreover, the “PEPCK-c (% UTC)” value in the data set on PEPCK-c (setting [2]) is 182 % UTC. For the same substance, in the data set with IL-12 mRNA, the “IL-12 mRNA expression, −IFN % UTC” value was determined as 302 % UTC and the “IL-12 mRNA expression, +IFN % UTC” value is reported as 60 % UTC.

In the case of “327941 (antisense eA*eA*e[5mC]*e[5mC]*e[5mC]*eA*e[5mC]*e[5mC]*eG*eA*e[5mC]*eA*eG*e[5mC]*eA*eA*eT*eG*eA*eA*eT*eG*eT*eT) [compound 327941]”, the results for the “PEPCK-c (% UTC)” value with PEPCK-c (setting [1]) and with PEPCK-c (setting [2]) were 101 % UTC and 98 % UTC, respectively. For the same substance, the “IL-12 mRNA expression, % UTC” value in the data set with IL-12 mRNA (75 nM, +IFN) is 4 % UTC; in the data set with IL-12 mRNA (75 nM, −IFN) it was 49 % UTC; in the data set on IL-12 mRNA (150 nM, +IFN), 2 % UTC; in the data set on IL-12 mRNA (150 nM, −IFN), 45 % UTC; in the data set on IL-12 mRNA (300 nM, +IFN), 3 % UTC; in the data set with IL-12 mRNA (300 nM, −IFN), 34 % UTC. For the same substance, the “IL-12 mRNA expression, % UTC” value is recorded as 3 % UTC in the data set on IL-12 mRNA (600 nM, +IFN) and 41 % UTC with IL-12 mRNA (600 nM, −IFN). Besides, the “IL-12 mRNA expression, −IFN % UTC” value in the data set on IL-12 mRNA was found to be 89 % UTC. Further, in the data set on IL-12 mRNA, the “IL-12 mRNA expression, +IFN % UTC” value is recorded as 34 % UTC.

For “327899 (antisense e[5mC]*eA*eG*eT*eG*eA*eA*eT*eT*e[5mC]*eT*eA*e[5mC]*e[5mC]*eA*eG*eT*eG*e[5mC]*e[5mC]*eA*eT*eA) [compound 327899]”, the “PEPCKc mRNA” value with PEPCK-c (setting [3]) is reported as 42. In addition, in the data set on IL-12 mRNA, the “IL-12 mRNA expression, −IFN % UTC” value was 164 % UTC and the “IL-12 mRNA expression, +IFN % UTC” value is 7 % UTC.

“327920 (antisense eG*eA*eG*eA*e[5mC]*e[5mC]*e[5mC]*eA*eG*eT*eA*eG*e[5mC]*e[5mC]*eA*eG*eA*eT*eG*eT*eA*eG*e[5mC]*eT) [compound 327920]”: in the data set with PEPCK-c, the “PEPCKc mRNA expression” value was 59. Also, the “PEPCKc mRNA” value in the data set on PEPCK-c (setting [3]) is recorded as 52. In the data set with IL-12 mRNA, the “IL-12 mRNA expression, −IFN % UTC” value is recorded as 171 % UTC and the “IL-12 mRNA expression, +IFN % UTC” value was 68 % UTC.

In the case of “327911 (antisense eG*e[5mC]*eT*eA*e[5mC]*e[5mC]*eT*eG*e[5mC]*eA*e[5mC]*eT*eG*eT*eA*eA*eG*e[5mC]*eA*e[5mC]*eT*eT*eT*eT) [compound 327911]”, the “PEPCKc mRNA expression” value in the data set with PEPCK-c was found to be 78. Besides, in the data set with PEPCK-c (setting [3]), the “PEPCKc mRNA” value is recorded as 52.

Turning to “338664 (antisense e[5mC]*eA*eG*eA*e[5mC]*eT*e[5mC]*e[5mC]*e[5mC]*eA*eA*e[5mC]*eT*eG*eA*e[5mC]*e[5mC]*eA*eG*eA) [compound 338664]”, the “PEPCK-c (% UTC)” value amounted to 75 % UTC with PEPCK-c (setting [1]) and 76 % UTC with PEPCK-c (setting [2]).

With “327933 (antisense eA*eA*eG*eG*eG*eA*eT*eT*e[5mC]*e[5mC]*eT*eG*eG*eG*eA*eA*eA*eA*e[5mC]*eT*eG*eG*eA*e[5mC]) [compound 327933]”, the results for the “PEPCK-c (% UTC)” value in the data set with PEPCK-c (setting [1]) and with PEPCK-c (setting [2]) were 118 % UTC and 115 % UTC, respectively.

Consider “341806 (antisense GCCAATATTTCTGTGCTGCTA; all 2'-MOE, all phosphorothioate, methylation of C not given here) [compound 341806]”, for which the “PEPCKc mRNA” value in the data set on PEPCK-c (setting [3]) is listed as 79.

Take “327892 (antisense eA*e[5mC]*eT*eT*eT*e[5mC]*eG*eG*eT*eT*eA*eT*e[5mC]*eT*eA*eG*e[5mC]*eT*eT*eT*eA) [compound 327892]”: the “PEPCK-c (% UTC)” value in the data set with PEPCK-c (setting [1]) is reported as 75 % UTC; with PEPCK-c (setting [2]), 104 % UTC.

Turning to “327934 (antisense eG*eG*eT*eA*e[5mC]*eA*eA*eT*e[5mC]*eA*eA*e[5mC]*eG*eG*eT*e[5mC]*eG*eA*eT*eG*eG*eT) [compound 327934]”, the figures for the “PEPCK-c (% UTC)” value in the data set with PEPCK-c (setting [1]) and in the data set on PEPCK-c (setting [2]) were 99 % UTC and 105 % UTC, respectively.

Turning to “328685 (e[5mC]*eG*eG*e[5mC]*e[5mC]*dG*dG*dA*dG*d[5mC]*d[5mC]*dA*dT*dA*dG*eA*e[5mC]*eT*e[5mC]*eG; antisense) [compound 328685]”, the “PEPCK-c (% UTC)” value with PEPCK-c (setting [4]) is 219 % UTC; with PEPCK-c (setting [5]) it was 184 % UTC.

For the substance “327954 (antisense eA*e[5mC]*eA*eA*eA*eG*eT*eT*e[5mC]*eT*eG*eT*eG*eA*eT*eG*e[5mC]*eA*e[5mC]*eT*eG*eA) [compound 327954]”, the “PEPCK-c (% UTC)” value in the data set on PEPCK-c (setting [1]) is listed as 79 % UTC; in the data set with PEPCK-c (setting [2]), 102 % UTC.

As to “328677 (eT*e[5mC]*e[5mC]*eT*eG*dG*dA*dT*dG*dA*dT*dA*dT*d[5mC]*dT*eA*e[5mC]*e[5mC]*eT*e[5mC]; antisense) [compound 328677]”, the figures for the “PEPCK-c (% UTC)” value with PEPCK-c (setting [4]) and in the data set on PEPCK-c (setting [5]) were 145 % UTC and 117 % UTC, respectively.

Take “328125 (antisense eT*eA*eT*eG*eA*eA*eA*eT*eG*e[5mC]*e[5mC]*eA*eG*eA*eG*e[5mC]*eT*eG*e[5mC]*e[5mC]*eA) [compound 328125]”: the “PEPCKc mRNA expression” value in the data set on PEPCK-c is listed as 77.

Turning to “327905 (antisense e[5mC]*eA*eG*eA*e[5mC]*eT*e[5mC]*e[5mC]*eG*eG*eT*eG*eG*eA*eA*eT*eG*eA*eA*eG*eG*eA) [compound 327905]”, the “PEPCK-c (% UTC)” value amounted to 129 % UTC in the data set on PEPCK-c (setting [1]) and 147 % UTC in the data set with PEPCK-c (setting [2]).

As for “327886 (antisense e[5mC]*eG*e[5mC]*eG*eT*eA*e[5mC]*e[5mC]*eA*eA*eA*eA*eG*eT*eA*eA*eT*eA*eA*eT*eG) [compound 327886]”, in the data set on PEPCK-c (setting [3]), the “PEPCKc mRNA” value came to 61.

Turning to “328759 (antisense eG*eA*eG*eG*eG*dA*dT*dT*dG*dT*dA*dT*dG*dA*dA*e[5mC]*eA*eT*e[5mC]*eT) [compound 328759]”, the figures for the “PEPCK-c (% UTC)” value in the data set with PEPCK-c (setting [4]) and in the data set with PEPCK-c (setting [5]) were 98 % UTC and 92 % UTC, respectively.

“341807 (antisense CTGGGACTTTGTAGGCCAGTT; all 2'-MOE, all phosphorothioate, methylation of C not given here) [compound 341807]”: the “PEPCKc mRNA” value in the data set with PEPCK-c (setting [3]) was determined as 97.

With “327880 (antisense eA*e[5mC]*eA*eA*eA*eT*eT*e[5mC]*eG*eG*eT*eT*e[5mC]*eT*eA*e[5mC]*eA*eG*eG*eG*eT*eA) [compound 327880]”, the “PEPCK-c (% UTC)” value in the data set with PEPCK-c (setting [1]) is 110 % UTC; in the data set on PEPCK-c (setting [2]), 125 % UTC.
